Tests used:
B2 bradykinin receptor = target: T1, B2 bradykinin receptor (Homo sapiens, UniProt P30411)
T1 sequence (P30411 whole entry): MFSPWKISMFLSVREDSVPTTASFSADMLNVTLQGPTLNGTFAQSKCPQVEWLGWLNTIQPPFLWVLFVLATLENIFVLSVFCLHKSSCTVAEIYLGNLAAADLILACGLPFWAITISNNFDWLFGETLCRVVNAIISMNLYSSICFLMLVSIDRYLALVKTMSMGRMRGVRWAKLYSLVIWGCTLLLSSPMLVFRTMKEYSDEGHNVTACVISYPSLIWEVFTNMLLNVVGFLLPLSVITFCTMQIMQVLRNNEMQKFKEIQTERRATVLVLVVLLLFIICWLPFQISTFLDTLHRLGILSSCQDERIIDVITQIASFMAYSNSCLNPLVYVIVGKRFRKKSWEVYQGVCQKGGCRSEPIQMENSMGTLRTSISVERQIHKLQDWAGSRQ

[1] = target: Voltage-dependent L-type calcium channel subunit alpha-1C (Rattus norvegicus, UniProt P22002); format: functional
[2] = target: T2, Muscarinic acetylcholine receptor M1 (Homo sapiens, UniProt P11229); format: functional
T2 sequence (P11229 whole entry): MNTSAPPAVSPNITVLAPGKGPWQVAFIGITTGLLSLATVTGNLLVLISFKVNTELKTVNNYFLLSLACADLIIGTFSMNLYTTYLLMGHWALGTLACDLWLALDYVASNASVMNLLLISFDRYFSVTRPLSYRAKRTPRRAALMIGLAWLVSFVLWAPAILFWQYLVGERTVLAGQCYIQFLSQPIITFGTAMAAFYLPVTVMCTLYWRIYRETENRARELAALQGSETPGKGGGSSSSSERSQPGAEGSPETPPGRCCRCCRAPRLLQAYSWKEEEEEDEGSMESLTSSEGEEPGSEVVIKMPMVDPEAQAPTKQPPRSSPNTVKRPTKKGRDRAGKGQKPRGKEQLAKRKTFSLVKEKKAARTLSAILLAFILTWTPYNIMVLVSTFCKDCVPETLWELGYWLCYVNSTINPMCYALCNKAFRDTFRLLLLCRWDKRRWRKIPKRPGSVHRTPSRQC

[3] = target: Neuronal acetylcholine receptor subunit alpha-4 (Homo sapiens, UniProt P43681)
[4] = target: Gamma-aminobutyric acid receptor subunit alpha-1 (Rattus norvegicus, UniProt P62813)
Histamine H1 receptor = Histamine H1 receptor (Homo sapiens, UniProt P35367)
[5] = target: T3, 5-hydroxytryptamine receptor 1A (Homo sapiens, UniProt P08908); format: functional, cell-based
T3 sequence (P08908 whole entry): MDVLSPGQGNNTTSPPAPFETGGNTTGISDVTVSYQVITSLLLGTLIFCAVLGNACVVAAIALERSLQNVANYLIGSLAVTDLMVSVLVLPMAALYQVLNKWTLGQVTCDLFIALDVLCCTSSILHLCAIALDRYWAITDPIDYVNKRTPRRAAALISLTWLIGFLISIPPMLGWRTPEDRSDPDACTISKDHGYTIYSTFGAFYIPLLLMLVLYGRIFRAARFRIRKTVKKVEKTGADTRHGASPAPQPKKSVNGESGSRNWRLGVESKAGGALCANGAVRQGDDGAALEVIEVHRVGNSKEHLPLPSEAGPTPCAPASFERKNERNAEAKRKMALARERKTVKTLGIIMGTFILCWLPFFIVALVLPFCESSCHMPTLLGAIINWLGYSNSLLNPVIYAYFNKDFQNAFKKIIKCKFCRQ

[6] = target: 5-hydroxytryptamine receptor 2B (Homo sapiens, UniProt P41595); format: functional, cell-based
[7] = target: Voltage-gated inwardly rectifying potassium channel KCNH2 (Homo sapiens, UniProt Q12809); format: functional; conditions: read-out: AC50
Melanocortin receptor 3 = Melanocortin receptor 3 (Homo sapiens, UniProt P41968)
[8] = target: T4, Prostaglandin G/H synthase 1 (Rattus norvegicus, UniProt Q63921); format: functional
T4 sequence (Q63921 whole entry): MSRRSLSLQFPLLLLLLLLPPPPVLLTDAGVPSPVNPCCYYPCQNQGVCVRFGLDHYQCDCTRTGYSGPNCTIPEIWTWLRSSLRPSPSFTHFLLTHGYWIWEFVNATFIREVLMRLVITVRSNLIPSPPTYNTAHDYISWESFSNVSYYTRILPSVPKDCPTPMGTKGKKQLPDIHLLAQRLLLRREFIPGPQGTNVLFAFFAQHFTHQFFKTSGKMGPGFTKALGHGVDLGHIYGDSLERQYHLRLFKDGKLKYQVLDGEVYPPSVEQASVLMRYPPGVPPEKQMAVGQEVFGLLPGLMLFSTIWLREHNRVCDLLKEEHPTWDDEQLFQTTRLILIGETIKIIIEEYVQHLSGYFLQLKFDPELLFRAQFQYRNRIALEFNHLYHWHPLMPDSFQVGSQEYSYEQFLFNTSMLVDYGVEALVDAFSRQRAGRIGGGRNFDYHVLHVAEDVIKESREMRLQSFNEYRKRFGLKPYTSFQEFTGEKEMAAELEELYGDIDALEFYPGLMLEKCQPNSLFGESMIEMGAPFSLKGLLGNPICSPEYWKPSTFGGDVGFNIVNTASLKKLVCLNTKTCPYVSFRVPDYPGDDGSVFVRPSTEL

[9] = target: Sodium-dependent dopamine transporter (Homo sapiens, UniProt Q01959)
Also: assay procedure not described here.

Chain of Histamine H1 receptor (P35367 whole entry): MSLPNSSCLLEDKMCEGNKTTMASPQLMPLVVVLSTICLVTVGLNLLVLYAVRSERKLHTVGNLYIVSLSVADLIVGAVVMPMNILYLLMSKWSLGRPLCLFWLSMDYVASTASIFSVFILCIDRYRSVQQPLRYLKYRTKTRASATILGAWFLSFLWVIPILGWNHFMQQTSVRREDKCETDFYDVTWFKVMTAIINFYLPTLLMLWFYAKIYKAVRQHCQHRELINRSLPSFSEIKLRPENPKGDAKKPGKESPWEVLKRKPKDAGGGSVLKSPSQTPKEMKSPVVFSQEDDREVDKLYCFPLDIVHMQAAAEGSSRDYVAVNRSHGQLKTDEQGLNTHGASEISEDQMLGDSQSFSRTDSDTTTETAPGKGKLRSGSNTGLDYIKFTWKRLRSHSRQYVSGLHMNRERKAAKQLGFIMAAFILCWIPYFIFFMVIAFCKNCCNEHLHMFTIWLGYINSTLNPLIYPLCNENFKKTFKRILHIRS
Chain of Voltage-gated inwardly rectifying potassium channel KCNH2 (Q12809 whole entry): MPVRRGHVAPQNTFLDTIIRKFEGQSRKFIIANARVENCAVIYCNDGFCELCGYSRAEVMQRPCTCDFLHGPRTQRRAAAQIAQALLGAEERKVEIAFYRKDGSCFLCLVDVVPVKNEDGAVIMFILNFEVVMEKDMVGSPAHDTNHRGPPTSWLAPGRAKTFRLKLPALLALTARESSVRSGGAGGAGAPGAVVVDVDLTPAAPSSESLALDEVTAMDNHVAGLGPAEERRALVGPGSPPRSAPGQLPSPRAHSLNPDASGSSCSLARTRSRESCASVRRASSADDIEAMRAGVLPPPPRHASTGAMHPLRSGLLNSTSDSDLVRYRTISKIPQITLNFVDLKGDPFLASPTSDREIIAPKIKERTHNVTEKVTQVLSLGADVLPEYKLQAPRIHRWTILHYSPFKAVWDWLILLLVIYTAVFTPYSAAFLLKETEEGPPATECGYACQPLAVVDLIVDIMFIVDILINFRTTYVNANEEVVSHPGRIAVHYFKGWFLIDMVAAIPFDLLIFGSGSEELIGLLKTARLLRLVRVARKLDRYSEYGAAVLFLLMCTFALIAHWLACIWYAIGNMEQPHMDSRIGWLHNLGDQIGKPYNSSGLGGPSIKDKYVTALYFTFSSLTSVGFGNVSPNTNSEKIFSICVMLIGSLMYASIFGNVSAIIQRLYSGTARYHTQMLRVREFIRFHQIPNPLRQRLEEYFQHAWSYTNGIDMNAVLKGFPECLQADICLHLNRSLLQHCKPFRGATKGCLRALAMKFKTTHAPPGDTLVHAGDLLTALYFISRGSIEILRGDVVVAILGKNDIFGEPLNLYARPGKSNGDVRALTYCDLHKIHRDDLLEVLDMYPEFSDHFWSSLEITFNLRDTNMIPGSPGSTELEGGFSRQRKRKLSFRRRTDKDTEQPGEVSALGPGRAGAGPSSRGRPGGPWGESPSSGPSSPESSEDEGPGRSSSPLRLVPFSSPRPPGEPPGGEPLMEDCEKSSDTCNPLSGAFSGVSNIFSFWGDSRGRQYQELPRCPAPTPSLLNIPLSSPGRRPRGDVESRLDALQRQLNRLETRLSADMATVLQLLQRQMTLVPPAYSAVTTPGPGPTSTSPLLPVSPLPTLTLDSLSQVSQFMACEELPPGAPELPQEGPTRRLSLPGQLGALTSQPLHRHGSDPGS
Chain of Gamma-aminobutyric acid receptor subunit alpha-1 (P62813 whole entry): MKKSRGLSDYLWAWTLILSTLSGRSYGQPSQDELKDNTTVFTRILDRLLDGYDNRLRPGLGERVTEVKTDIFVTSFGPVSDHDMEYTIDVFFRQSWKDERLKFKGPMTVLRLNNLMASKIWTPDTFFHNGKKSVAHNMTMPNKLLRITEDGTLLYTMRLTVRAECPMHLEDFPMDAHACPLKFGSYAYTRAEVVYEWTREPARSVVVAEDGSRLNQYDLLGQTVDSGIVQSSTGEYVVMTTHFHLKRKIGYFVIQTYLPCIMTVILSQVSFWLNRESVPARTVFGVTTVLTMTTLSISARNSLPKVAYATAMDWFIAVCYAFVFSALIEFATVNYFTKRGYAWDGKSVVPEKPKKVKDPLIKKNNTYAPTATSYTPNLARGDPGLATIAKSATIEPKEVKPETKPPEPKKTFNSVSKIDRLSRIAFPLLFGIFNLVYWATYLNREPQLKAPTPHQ
Chain of Melanocortin receptor 3 (P41968 whole entry): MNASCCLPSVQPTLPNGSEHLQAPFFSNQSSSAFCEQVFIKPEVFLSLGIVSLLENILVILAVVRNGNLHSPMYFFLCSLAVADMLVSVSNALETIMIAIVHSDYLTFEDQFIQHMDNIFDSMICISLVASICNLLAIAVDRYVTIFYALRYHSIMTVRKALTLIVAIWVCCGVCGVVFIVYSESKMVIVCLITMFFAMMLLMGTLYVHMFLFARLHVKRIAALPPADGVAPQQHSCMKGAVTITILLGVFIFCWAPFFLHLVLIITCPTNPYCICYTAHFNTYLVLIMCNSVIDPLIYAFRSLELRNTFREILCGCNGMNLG
Chain of Voltage-dependent L-type calcium channel subunit alpha-1C (P22002 whole entry): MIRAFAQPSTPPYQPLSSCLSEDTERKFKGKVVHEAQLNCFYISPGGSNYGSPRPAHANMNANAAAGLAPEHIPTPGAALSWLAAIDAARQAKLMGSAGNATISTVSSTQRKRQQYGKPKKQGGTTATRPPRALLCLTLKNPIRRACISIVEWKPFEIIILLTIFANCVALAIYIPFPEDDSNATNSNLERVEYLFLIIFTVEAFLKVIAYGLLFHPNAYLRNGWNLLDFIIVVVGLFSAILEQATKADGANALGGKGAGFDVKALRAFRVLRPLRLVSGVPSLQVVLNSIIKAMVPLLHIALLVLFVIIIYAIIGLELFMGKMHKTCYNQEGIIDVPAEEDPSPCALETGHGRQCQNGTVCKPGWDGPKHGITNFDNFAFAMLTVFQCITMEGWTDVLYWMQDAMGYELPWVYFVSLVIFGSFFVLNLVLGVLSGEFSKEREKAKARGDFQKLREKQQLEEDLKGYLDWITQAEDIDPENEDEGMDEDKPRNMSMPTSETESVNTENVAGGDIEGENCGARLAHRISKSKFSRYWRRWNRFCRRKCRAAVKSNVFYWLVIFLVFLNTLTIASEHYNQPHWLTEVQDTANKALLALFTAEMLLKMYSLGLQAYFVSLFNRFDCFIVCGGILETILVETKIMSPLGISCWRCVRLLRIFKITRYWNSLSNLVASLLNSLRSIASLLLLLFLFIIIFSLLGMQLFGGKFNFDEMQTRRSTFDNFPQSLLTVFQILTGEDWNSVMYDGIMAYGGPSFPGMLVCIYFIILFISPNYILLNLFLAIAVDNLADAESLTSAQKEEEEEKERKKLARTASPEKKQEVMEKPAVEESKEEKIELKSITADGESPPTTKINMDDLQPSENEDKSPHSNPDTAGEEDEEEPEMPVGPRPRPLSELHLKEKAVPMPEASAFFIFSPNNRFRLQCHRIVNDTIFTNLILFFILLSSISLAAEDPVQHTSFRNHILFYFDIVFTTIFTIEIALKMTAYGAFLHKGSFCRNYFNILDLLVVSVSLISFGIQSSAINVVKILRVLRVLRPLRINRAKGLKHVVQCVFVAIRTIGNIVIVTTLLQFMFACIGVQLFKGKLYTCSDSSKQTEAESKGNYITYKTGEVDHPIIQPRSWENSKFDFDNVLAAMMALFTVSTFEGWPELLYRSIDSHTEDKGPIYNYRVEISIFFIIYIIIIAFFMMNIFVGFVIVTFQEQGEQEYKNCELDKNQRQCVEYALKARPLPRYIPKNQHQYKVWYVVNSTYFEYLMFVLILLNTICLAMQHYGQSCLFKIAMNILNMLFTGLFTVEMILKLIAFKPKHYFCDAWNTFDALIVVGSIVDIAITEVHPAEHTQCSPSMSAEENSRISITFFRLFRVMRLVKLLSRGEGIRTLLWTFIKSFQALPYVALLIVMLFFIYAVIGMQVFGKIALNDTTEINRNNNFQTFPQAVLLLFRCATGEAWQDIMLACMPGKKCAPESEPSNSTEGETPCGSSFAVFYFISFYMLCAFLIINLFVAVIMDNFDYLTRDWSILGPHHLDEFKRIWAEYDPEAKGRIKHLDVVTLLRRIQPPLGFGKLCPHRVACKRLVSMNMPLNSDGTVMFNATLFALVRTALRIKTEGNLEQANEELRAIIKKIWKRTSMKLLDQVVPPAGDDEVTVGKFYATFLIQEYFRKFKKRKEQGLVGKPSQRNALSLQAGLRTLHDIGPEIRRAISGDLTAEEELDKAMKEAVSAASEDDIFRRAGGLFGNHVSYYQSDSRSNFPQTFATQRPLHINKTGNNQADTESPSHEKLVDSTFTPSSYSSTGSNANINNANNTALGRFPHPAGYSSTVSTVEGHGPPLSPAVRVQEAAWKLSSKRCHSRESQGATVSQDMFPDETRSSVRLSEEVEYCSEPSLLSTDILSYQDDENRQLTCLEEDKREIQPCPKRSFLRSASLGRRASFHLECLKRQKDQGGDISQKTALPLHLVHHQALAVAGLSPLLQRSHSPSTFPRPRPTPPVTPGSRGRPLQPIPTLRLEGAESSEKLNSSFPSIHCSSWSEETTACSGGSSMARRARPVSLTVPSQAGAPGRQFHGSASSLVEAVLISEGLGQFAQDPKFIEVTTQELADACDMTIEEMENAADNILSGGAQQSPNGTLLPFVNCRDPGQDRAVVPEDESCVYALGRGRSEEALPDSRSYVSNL
Chain of 5-hydroxytryptamine receptor 2B (P41595 whole entry): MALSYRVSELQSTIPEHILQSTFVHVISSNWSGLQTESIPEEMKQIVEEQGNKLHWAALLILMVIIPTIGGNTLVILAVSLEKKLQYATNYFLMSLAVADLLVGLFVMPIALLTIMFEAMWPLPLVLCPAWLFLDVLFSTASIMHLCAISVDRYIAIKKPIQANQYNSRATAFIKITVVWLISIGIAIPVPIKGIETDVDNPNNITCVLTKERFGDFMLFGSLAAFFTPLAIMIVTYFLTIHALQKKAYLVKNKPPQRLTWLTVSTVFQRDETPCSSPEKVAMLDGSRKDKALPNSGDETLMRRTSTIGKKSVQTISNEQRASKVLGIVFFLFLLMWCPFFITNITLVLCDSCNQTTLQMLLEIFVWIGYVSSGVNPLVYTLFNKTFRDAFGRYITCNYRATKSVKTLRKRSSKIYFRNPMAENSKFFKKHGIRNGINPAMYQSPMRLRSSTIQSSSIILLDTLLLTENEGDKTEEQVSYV

With `CC(C[N+](C)(C)C)OC(N)=O` (centres undefined) [BETHANECHOL] the AC50 (B2 bradykinin receptor) was > 10 µM, the AC50 [1] was > 10 µM and the AC50 [2] was > 10 µM. For the same compound, the AC50 [3] was > 10 µM, the AC50 [4] was > 10 µM and the AC50 (Histamine H1 receptor) was > 10 µM. The AC50 [5] was > 10 µM, the AC50 [6] was > 10 µM and the AC50 [7] was > 30 µM. The AC50 (Melanocortin receptor 3) was > 10 µM, the AC50 [8] was > 10 µM and the AC50 [9] was > 10 µM.

For `O=C(O)[C@H](CC(=O)N1C[C@H]2CCCC[C@H]2C1)Cc1ccccc1` [MITIGLINIDE], the AC50 (B2 bradykinin receptor) was > 10 µM, the AC50 [1] was > 10 µM and the AC50 [2] was > 10 µM. For the same compound, the AC50 [3] was > 10 µM, the AC50 [4] was > 10 µM and the AC50 (Histamine H1 receptor) was > 10 µM. For the same compound, the AC50 [5] was > 10 µM, the AC50 [6] was > 10 µM and the AC50 [7] was > 30 µM. For the same compound, the AC50 (Melanocortin receptor 3) was > 10 µM, the AC50 [8] was > 10 µM and the AC50 [9] was > 10 µM.

For `C=CCC1(CC(C)C)C(=O)NC(=O)NC1=O` [BUTALBITAL], the AC50 (B2 bradykinin receptor) was > 10 µM, the AC50 [1] was > 10 µM and the AC50 [2] was > 30 µM. For the same compound, the AC50 [3] was > 10 µM, the AC50 [4] was > 10 µM and the AC50 (Histamine H1 receptor) was > 30 µM. The AC50 [5] was > 10 µM, the AC50 [6] was > 10 µM and the AC50 [7] was > 30 µM. For the same compound, the AC50 (Melanocortin receptor 3) was > 10 µM, the AC50 [8] was > 10 µM and the AC50 [9] was > 10 µM.

`C[C@]1(O)CC[C@H]2[C@@H]3CCC4=CC(=O)CC[C@]4(C)[C@@]3(F)[C@@H](O)C[C@@]21C` [FLUOXYMESTERONE] was tested, and the AC50 (B2 bradykinin receptor) was > 10 µM, the AC50 [1] was > 10 µM and the AC50 [2] was > 30 µM. For the same compound, the AC50 [3] was > 10 µM, the AC50 [4] was > 10 µM and the AC50 (Histamine H1 receptor) was > 30 µM. For the same compound, the AC50 [5] was > 10 µM, the AC50 [6] was > 10 µM and the AC50 [7] was > 30 µM. For the same compound, the AC50 (Melanocortin receptor 3) was > 10 µM, the AC50 [8] was > 10 µM and the AC50 [9] was > 10 µM.

With `CN1CCC(=C2c3ccccc3CCc3sccc32)CC1` [PIZOTYLINE] the AC50 (B2 bradykinin receptor) was > 30 µM, the AC50 [1] was 20.1 µM and the AC50 [2] was 0.093 µM. For the same compound, the AC50 [3] was > 10 µM, the AC50 [4] was > 10 µM and the AC50 (Histamine H1 receptor) was 0.0047 µM. For the same compound, the AC50 [5] was 3.56 µM, the AC50 [6] was > 30 µM and the AC50 [7] was 2.31 µM. For the same compound, the AC50 (Melanocortin receptor 3) was > 30 µM, the AC50 [8] was > 30 µM and the AC50 [9] was 13.4 µM.

With `Nc1nc(/C(=C/CC(=O)O)C(=O)N[C@@H]2C(=O)N3C(C(=O)O)=CCS[C@H]23)cs1` [CEFTIBUTEN] the AC50 (B2 bradykinin receptor) was > 30 µM, the AC50 [1] was > 30 µM and the AC50 [2] was > 30 µM. For the same compound, the AC50 [3] was > 30 µM, the AC50 [4] was > 30 µM and the AC50 (Histamine H1 receptor) was > 30 µM. For the same compound, the AC50 [5] was > 30 µM, the AC50 [6] was > 30 µM and the AC50 [7] was > 30 µM. The AC50 (Melanocortin receptor 3) was > 30 µM, the AC50 [8] was > 30 µM and the AC50 [9] was > 30 µM.

For `C#C[C@]1(O)CC[C@H]2[C@@H]3CCc4cc(OC5CCCC5)ccc4[C@H]3CC[C@@]21C` [QUINESTROL], the AC50 (B2 bradykinin receptor) was > 10 µM, the AC50 [1] was > 10 µM and the AC50 [2] was > 10 µM. For the same compound, the AC50 [3] was > 10 µM, the AC50 [4] was > 10 µM and the AC50 (Histamine H1 receptor) was > 10 µM. The AC50 [5] was > 10 µM, the AC50 [6] was > 10 µM and the AC50 [7] was > 30 µM. For the same compound, the AC50 (Melanocortin receptor 3) was > 10 µM, the AC50 [8] was > 10 µM and the AC50 [9] was > 10 µM.
